Molecules are shown by their SMILES.

The target of series [1] is Bromodomain-containing protein 4 (Homo sapiens, UniProt O60885, Y390A).
The target in series [2] is Bromodomain-containing protein 4 (Homo sapiens, UniProt O60885, Y97A).
A further series concerns PBMC. As to the kind of experiment: cells. Conditions: Homo sapiens, read-out: pIC50 (converted).
Another series is described as follows: physchem. To be noted: buffer.

Description for PBMC: Antiinflammatory activity in human PBMC assessed as inhibition of LPS-induced MCP1 release preincubated for 30 mins followed by LPS challenge measured after 24 hrs by immunoassay
Description for physchem: Chromatographic hydrophobicity index, log D of the compound at pH 7.4 by HPLC method

Usually chromatographic logD stands for a lipophilicity value derived from retention on a column. On to `CC(=O)N1c2ccccc2N(Cc2ccccc2)CC1C` (stereo unspecified), for which the IC50 was 15800 nM in series [1], 501 nM in series [2] and 1260 nM in the series on PBMC. The same compound showed a chromatographic logD in the series “physchem” (pH 7.4, logD) of 5.9.

Regarding `CC(=O)N1c2ccccc2N(Cc2ccccc2C#N)CC1C1CC1` (stereo unspecified), the IC50 in series [1] was 25100 nM; in series [2], 2510 nM. The same compound had a chromatographic logD in “physchem” (pH 7.4, logD) of 6.

In the case of `CC(=O)N1c2ccccc2N(Cc2ccccc2C(N)=O)CC1C1CC1` (stereo unspecified), the IC50 in series [1] was over 50100 nM; in series [2], 1260 nM. The compound further displayed a chromatographic logD in the series “physchem” (pH 7.4, logD) of 3.9.

Consider `CC(=O)N1CC(C)N(Cc2ccccc2)c2ccccc21` (stereo unspecified), for which the IC50 in series [1] is 31600 nM; in series [2], 1260 nM.

Consider `CCC1CN(Cc2ccccc2)c2cc(-c3cnc(C(N)=O)nc3)ccc2N1C(C)=O` (stereo unspecified), for which the results for the IC50 in series [1] and in series [2] were 2000 nM and 100 nM, respectively. The compound also showed a chromatographic logD in the series “physchem” (pH 7.4, logD) of 3.6.

Regarding `CC(=O)N1c2ccccc2N(Cc2ccccc2CN)CC1C1CC1` (stereo unspecified), the IC50 is 20000 nM in series [1] and 631 nM in series [2]. Further, the chromatographic logD in “physchem” (pH 7.4, logD) was 2.7.

In the case of `CCC1CN(Cc2ccccc2)c2cc(C3=CCNCC3)ccc2N1C(C)=O` (stereo unspecified), the IC50 in series [1] was 3160 nM; in series [2], 158 nM. Besides, the chromatographic logD in “physchem” (pH 7.4) was 2.8.

For the compound `CC(=O)N1c2ccccc2N(Cc2ccccc2OCCO)CC1C1CC1` (stereo unspecified), the IC50 in series [1] was 25100 nM; in series [2] it was 316 nM. Further, the chromatographic logD in “physchem” (pH 7.4, logD) was 4.9.

`CC(=O)N1CCN(Cc2ccccc2)c2ccccc21`: the IC50 in series [1] is 10000 nM; in series [2], 2510 nM. The compound also showed a chromatographic logD in “physchem” (pH 7.4, logD) of 5.6.

For the compound `CCC1CN(Cc2ccccc2)c2cc(-c3cccc(C(N)=O)c3)ccc2N1C(C)=O` (stereo unspecified), the IC50 was 501 nM in series [1] and 63.1 nM in series [2]. The chromatographic logD in “physchem” (pH 7.4, logD) turned out to be 4.7.

On to `CCC1CN(Cc2ccccc2)c2cc(-c3cncnc3)ccc2N1C(C)=O` (stereo unspecified), for which the IC50 is 3160 nM in series [1] and 158 nM in series [2]. In addition, the chromatographic logD in “physchem” (pH 7.4, logD) was found to be 4.9.

Regarding `CCC1CN(Cc2ccccc2)c2cc(-c3cnc(C#N)nc3)ccc2N1C(C)=O` (stereo unspecified), the IC50 is 251 nM in series [1] and 100 nM in series [2]. This compound had a chromatographic logD in “physchem” (pH 7.4, logD) of 6.3.

As for `CCC1CN(Cc2ccccc2)c2cc(-c3ccncc3OC)ccc2N1C(C)=O` (stereo unspecified), the IC50 in series [1] is 5010 nM; in series [2], 501 nM. In the series “physchem” (pH 7.4, logD), this compound gave a chromatographic logD of 5.4.

In the case of `CC(=O)N1c2ccccc2N(Cc2ccccc2CC(=O)O)CC1C1CC1` (stereo unspecified), the IC50 in series [1] was over 50100 nM; in series [2] it was 1000 nM; in the series with PBMC, 1260 nM. The compound further came in with a chromatographic logD in the series “physchem” (pH 7.4, logD) of 2.4.

On to `CC(=O)N1c2ccccc2N(Cc2ccccc2)CC1C1CC1` (stereo unspecified), for which the values for the IC50 (in series [1]; in series [2]; in the series on PBMC) were 20000 nM, 631 nM and 3160 nM, respectively. In “physchem” (pH 7.4, logD), this compound displayed a chromatographic logD of 6.7.

As for `CC(=O)N1CCN(Cc2cccc(C)c2)c2ccccc21`, the values for the IC50 (in series [1]; in series [2]; in the series on PBMC) were 15800 nM, 501 nM and 3160 nM, respectively. Moreover, the chromatographic logD in “physchem” (pH 7.4, logD) came out at 5.9.

Turning to `CCC1CN(Cc2ccccc2)c2cc(Br)ccc2N1C(C)=O` (stereo unspecified), the IC50 in series [1] is 2510 nM; in series [2], 316 nM. The compound also showed a chromatographic logD in “physchem” (pH 7.4, logD) of 7.4.

Consider `CCC1CN(Cc2cccc(C)c2)c2ccccc2N1C(C)=O` (stereo unspecified), for which the IC50 was 12600 nM in series [1] and 794 nM in series [2]. This compound also returned a chromatographic logD in “physchem” (pH 7.4, logD) of 7.1.

Turning to `COc1ccccc1CN1CC(C2CC2)N(C(C)=O)c2ccccc21` (stereo unspecified), the values for the IC50 (in series [1]; in series [2]; with PBMC) were 15800 nM, 398 nM and 2000 nM, respectively. Besides, the chromatographic logD in “physchem” (pH 7.4, logD) came to 6.9.

For `CCC1CN(Cc2ccccc2)c2ccccc2N1C(C)=O` (stereo unspecified), the IC50 in series [1] is 10000 nM; in series [2], 631 nM. The compound also displayed a chromatographic logD in “physchem” (pH 7.4, logD) of 6.5.

In the case of `CCC1CN(Cc2ccccc2)c2cc(-c3cn[nH]c3)ccc2N1C(C)=O` (stereo unspecified), the IC50 in series [1] is 398 nM; in series [2] it was 50.1 nM. In “physchem” (pH 7.4, logD), this compound yielded a chromatographic logD of 4.2.

Consider `CC(=O)N1c2ccccc2N(Cc2ccccc2CO)CC1C1CC1` (single isomer, unassigned; enantiomer 2), for which the IC50 in series [1] and in series [2] was over 50100 nM each time.

`CC(=O)N1CCN(Cc2ccccc2C(=O)O)c2ccccc21`: the IC50 in series [1] is over 50100 nM; in series [2] it was 5010 nM. The chromatographic logD in “physchem” (pH 7.4, logD) amounted to 1.2.

In the case of `CCOC(=O)c1ccccc1CN1CC(C2CC2)N(C(C)=O)c2ccccc21` (stereo unspecified), the results for the IC50 in series [1] and in series [2] were 12600 nM and 1000 nM, respectively. In the series “physchem” (pH 7.4, logD), this compound gave a chromatographic logD of 7.2.

For the compound `CCC1CN(Cc2ccccc2)c2cc(-c3cccnc3)ccc2N1C(C)=O` (stereo unspecified), the IC50 is 1580 nM in series [1] and 100 nM in series [2]. Moreover, the chromatographic logD in “physchem” (pH 7.4, logD) stood at 5.6.

For `CC(=O)N1c2ccccc2N(Cc2cc(C)ccc2C(=O)O)CC1C1CC1` (stereo unspecified), the IC50 in series [1] was over 50100 nM; in series [2], 2510 nM. In the series “physchem” (pH 7.4, logD), this compound gave a chromatographic logD of 2.4.

For `CC(=O)N1c2ccccc2N(Cc2cccc(C)c2)CC1C1CC1` (stereo unspecified), the IC50 was 25100 nM in series [1] and 794 nM in series [2]. In “physchem” (pH 7.4, logD), this compound registered a chromatographic logD of 7.2.

Turning to `CC(=O)N1c2ccccc2N(Cc2cccc(C)c2)CC1C` (stereo unspecified), the IC50 in series [1] is 20000 nM; in series [2], 1000 nM. The chromatographic logD in the series “physchem” (pH 7.4, logD) came out at 6.5.

`CC(=O)N1c2ccccc2N(Cc2ccccc2C(=O)O)CC1C1CC1` (stereo unspecified): the IC50 in series [1] is over 50100 nM; in series [2], 794 nM; in the series with PBMC, 2510 nM. Moreover, in “physchem” (pH 7.4, logD), the chromatographic logD was determined as 2.2.

As to `CC(=O)N1c2ccccc2N(Cc2ccc(Cl)cc2C(=O)O)CC1C1CC1` (stereo unspecified), the IC50 was 39800 nM in series [1], 1260 nM in series [2] and 12600 nM in the series with PBMC. The compound also showed a chromatographic logD in “physchem” (pH 7.4, logD) of 2.9.

With `CCC1CN(Cc2ccccc2)c2cc(-c3cnc(C)cn3)ccc2N1C(C)=O` (stereo unspecified), the IC50 in series [1] was 2000 nM; in series [2] it was 126 nM. Further, in “physchem” (pH 7.4, logD), the chromatographic logD amounted to 6.1.

For the compound `CC(=O)N1c2ccccc2N(Cc2ccccc2CO)CC1C1CC1` (racemic), the IC50 in series [1] is 31600 nM; in series [2], 501 nM. The compound further showed a chromatographic logD in the series “physchem” (pH 7.4, logD) of 4.9.

For the compound `CCC1CN(Cc2ccccc2)c2cc(-c3ccc(C(N)=O)cc3)ccc2N1C(C)=O` (stereo unspecified), the IC50 in series [1] is 398 nM; in series [2], 50.1 nM. The chromatographic logD in the series “physchem” (pH 7.4, logD) was found to be 4.4.

With `CC(=O)N1c2ccccc2N(Cc2ccccc2O)CC1C1CC1` (stereo unspecified), the IC50 in series [1] is 20000 nM; in series [2] it was 501 nM; with PBMC it was 1260 nM. In addition, the chromatographic logD in the series “physchem” (pH 7.4, logD) was 5.2.

Turning to `CCC1CN(Cc2ccccc2)c2cc(-c3ccc(C(N)=O)nc3)ccc2N1C(C)=O` (stereo unspecified), the IC50 is 631 nM in series [1] and 63.1 nM in series [2]. Moreover, in the series “physchem” (pH 7.4, logD), the chromatographic logD was determined as 4.5.

For the compound `CC(=O)N1c2ccccc2N(Cc2cccc(CO)c2)CC1C1CC1` (stereo unspecified), the IC50 is 25100 nM in series [1], 794 nM in series [2] and 631 nM in the series on PBMC. Also, in the series “physchem” (pH 7.4, logD), the chromatographic logD was 4.7.

With `CC(=O)N1c2ccccc2N(Cc2ccccc2N(C)C)CC1C1CC1` (stereo unspecified), the IC50 in series [1] was 20000 nM; in series [2], 501 nM; with PBMC, 1580 nM. The chromatographic logD in the series “physchem” (pH 7.4, logD) was 7.5.

Regarding `CC(=O)N1c2ccccc2N(Cc2ccccc2C(=O)O)CC1C` (stereo unspecified), the IC50 in series [1] is 39800 nM; in series [2] it was 1580 nM. In “physchem” (pH 7.4, logD), this compound displayed a chromatographic logD of 1.5.

As to `CCC1CN(Cc2ccccc2)c2cc(C3=CCOCC3)ccc2N1C(C)=O` (stereo unspecified), the values for the IC50 in series [1] and in series [2] were 1580 nM and 158 nM, respectively. This compound also displayed a chromatographic logD in the series “physchem” (pH 7.4, logD) of 6.5.

In “physchem” (pH 7.4, logD), `CC(=O)N1c2ccc(-c3ccc(C(=O)O)cc3)cc2[C@H](Nc2ccc(Cl)cc2)C[C@@H]1C` yielded a chromatographic logD of 3.9.

On to `CC(=O)N1c2ccccc2N(Cc2cccc(O)c2)CC1C1CC1` (stereo unspecified), for which the IC50 in series [1] was 15800 nM; in series [2], 631 nM. The same compound registered a chromatographic logD in the series “physchem” (pH 7.4, logD) of 4.9.

Take `CCC1CN(Cc2ccccc2)c2cc(-c3ccc(=O)[nH]c3)ccc2N1C(C)=O` (stereo unspecified): the IC50 in series [1] is 794 nM; in series [2], 79.4 nM. This compound yielded a chromatographic logD in the series “physchem” (pH 7.4, logD) of 3.5.

For `CCC1CN(Cc2ccccc2)c2cc(-c3cnoc3)ccc2N1C(C)=O` (stereo unspecified), the IC50 in series [1] is 1580 nM; in series [2] it was 126 nM. This compound also showed a chromatographic logD in the series “physchem” (pH 7.4, logD) of 5.9.

As to `COc1cc(OC)c2c(=O)[nH]c(-c3cc(C)c(OCCO)c(C)c3)nc2c1` [APABETALONE], the chromatographic logD in “physchem” (pH 7.4, logD) is 2.9.
